Laboratory results reported in PubChem BioAssay (NCI).
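Abbreviation: GI50, concentration required for 50% inhibition of growth. TGI marks complete inhibition of growth.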

What was measured:
Test in all cases: inhibition of tumour cell growth, NCI panel, 384-well format
786-0 renal = tested on: 786-0 renal
A498 renal = tested on: A498 renal
A549 NSCLC = tested on: A549 NSCLC
ACHN renal = tested on: ACHN renal
BT-549 breast = tested on: BT-549 breast
CAKI-1 renal = tested on: CAKI-1 renal
CCRF-CEM leukemia = tested on: CCRF-CEM leukemia
COLO 205 colon = tested on: COLO 205 colon
DU-145 prostate = tested on: DU-145 prostate
HCC-2998 colon = tested on: HCC-2998 colon
HCT-116 colon = tested on: HCT-116 colon
HCT-15 colon = tested on: HCT-15 colon
HL-60(TB) leukemia = tested on: HL-60(TB) leukemia
HOP-62 NSCLC = tested on: HOP-62 NSCLC
HOP-92 NSCLC = tested on: HOP-92 NSCLC
HT29 colon = tested on: HT29 colon
IGROV1 ovarian = tested on: IGROV1 ovarian
K-562 leukemia = tested on: K-562 leukemia
KM12 colon = tested on: KM12 colon
LOX IMVI melanoma = tested on: LOX IMVI melanoma
M14 melanoma = tested on: M14 melanoma
MALME-3M melanoma = tested on: MALME-3M melanoma
MCF7 breast = tested on: MCF7 breast
MDA-MB-435 melanoma = tested on: MDA-MB-435 melanoma
MDA-MB-468 breast = tested on: MDA-MB-468 breast
MOLT-4 leukemia = tested on: MOLT-4 leukemia
NCI-H226 lung = tested on: NCI-H226 lung
NCI-H23 lung = tested on: NCI-H23 lung
NCI-H322M lung = tested on: NCI-H322M lung
NCI-H460 NSCLC = tested on: NCI-H460 NSCLC
NCI-H522 lung = tested on: NCI-H522 lung
NCI/ADR-RES ovarian = tested on: NCI/ADR-RES ovarian
OVCAR-3 ovarian = tested on: OVCAR-3 ovarian
OVCAR-4 ovarian = tested on: OVCAR-4 ovarian
OVCAR-5 ovarian = tested on: OVCAR-5 ovarian
OVCAR-8 ovarian = tested on: OVCAR-8 ovarian
PC-3 prostate = tested on: PC-3 prostate
RPMI-8226 leukemia = tested on: RPMI-8226 leukemia
RXF 393 renal = tested on: RXF 393 renal
SF-268 CNS = tested on: SF-268 CNS
SF-539 CNS = tested on: SF-539 CNS
SK-MEL-2 melanoma = tested on: SK-MEL-2 melanoma
SK-MEL-28 melanoma = tested on: SK-MEL-28 melanoma
SK-MEL-5 melanoma = tested on: SK-MEL-5 melanoma
SN12C renal = tested on: SN12C renal
SNB-19 CNS = tested on: SNB-19 CNS
SR leukemia = tested on: SR leukemia
SW-620 colon = tested on: SW-620 colon
T-47D breast = tested on: T-47D breast
TK-10 renal = tested on: TK-10 renal
U251 glioblastoma = tested on: U251 glioblastoma
UACC-257 melanoma = tested on: UACC-257 melanoma
UACC-62 melanoma = tested on: UACC-62 melanoma
UO-31 renal = tested on: UO-31 renal

With `CN[C@@H](C)C(=O)N[C@H](C(=O)N1CCC[C@H]1C(=O)N[C@H]1c2ccccc2C[C@H]1OCC#CC#CCO[C@@H]1Cc2ccccc2[C@@H]1NC(=O)[C@@H]1CCCN1C(=O)[C@@H](NC(=O)[C@H](C)NC)C1CCCCC1)C1CCCCC1` the GI50 ([…]-0 renal) was 2920 nM, the TGI (786-0 renal) was 11400 nM and the GI50 (A498 renal) was 13500 nM. It also gave a TGI (A498 renal) of 26300 nM, a GI50 (A549 NSCLC) of 5330 nM and a TGI (A549 NSCLC) of 18600 nM. The GI50 (ACHN renal) was 15300 nM, the TGI (ACHN renal) was 28600 nM and the GI50 (BT-549 breast) was less than 10 nM. For the same molecule, the TGI (BT-549 breast) was 1920 nM, the GI50 (CAKI-1 renal) was 15100 nM and the TGI (CAKI-1 renal) was 28400 nM. The GI50 (CCRF-CEM leukemia) was less than 10 nM, the TGI (CCRF-CEM leukemia) was 1310 nM and the GI50 (COLO 205 colon) was 1370 nM. It also gave a TGI (COLO 205 colon) of 2660 nM, a GI50 (DU-145 prostate) of 1040 nM and a TGI (DU-145 prostate) of 2530 nM. For the same molecule, the GI50 (HCC-2998 colon) was 1620 nM, the TGI (HCC-2998 colon) was 2980 nM and the GI50 (HCT-116 colon) was 1670 nM. The TGI (HCT-116 colon) was 3120 nM, the GI50 (HCT-15 colon) was 18000 nM and the TGI (HCT-15 colon) was 31900 nM. The GI50 (HL-60(TB) leukemia) was less than 10 nM, the TGI (HL-60(TB) leukemia) was less than 10 nM and the GI50 (HOP-62 NSCLC) was 34.9 nM. For the same molecule, the TGI (HOP-62 NSCLC) was 441 nM, the GI50 (HOP-92 NSCLC) was less than 10 nM and the TGI (HOP-92 NSCLC) was 641 nM. The GI50 (HT29 colon) was 1660 nM, the TGI (HT29 colon) was 3100 nM and the GI50 (IGROV1 ovarian) was 1780 nM. For the same molecule, the TGI (IGROV1 ovarian) was 3460 nM, the GI50 (K-562 leukemia) was 2320 nM and the TGI (K-562 leukemia) was 6270 nM. For the same molecule, the GI50 (KM12 colon) was 1650 nM, the TGI (KM12 colon) was 3030 nM and the GI50 (LOX IMVI melanoma) was 2120 nM. It also gave a TGI (LOX IMVI melanoma) of 3560 nM, a GI50 (M14 melanoma) of 1900 nM and a TGI (M14 melanoma) of 3490 nM. It also gave a GI50 (MALME-3M melanoma) of less than 10 nM, a TGI (MALME-3M melanoma) of less than 10 nM and a GI50 (MCF7 breast) of 1330 nM. It also gave a TGI (MCF7 breast) of 2620 nM, a GI50 (MDA-MB-435 melanoma) of less than 10 nM and a TGI (MDA-MB-435 melanoma) of 2030 nM. The GI50 (MDA-MB-468 breast) was less than 10 nM, the TGI (MDA-MB-468 breast) was less than 10 nM and the GI50 (MOLT-4 leukemia) was 1480 nM. The TGI (MOLT-4 leukemia) was 2800 nM, the GI50 (NCI-H226 lung) was 6960 nM and the TGI (NCI-H226 lung) was 19800 nM. For the same molecule, the GI50 (NCI-H23 lung) was less than 10 nM, the TGI (NCI-H23 lung) was 57.6 nM and the GI50 (NCI-H322M lung) was 2250 nM. The TGI (NCI-H322M lung) was 5310 nM, the GI50 (NCI-H460 NSCLC) was 1770 nM and the TGI (NCI-H460 NSCLC) was 3190 nM. For the same molecule, the GI50 (NCI-H522 lung) was less than 10 nM, the TGI (NCI-H522 lung) was 1020 nM and the GI50 (NCI/ADR-RES ovarian) was 4650 nM. For the same molecule, the TGI (NCI/ADR-RES ovarian) was 35500 nM, the GI50 (OVCAR-3 ovarian) was 1320 nM and the TGI (OVCAR-3 ovarian) was 2640 nM. For the same molecule, the GI50 (OVCAR-4 ovarian) was less than 10 nM, the TGI (OVCAR-4 ovarian) was less than 10 nM and the GI50 (OVCAR-5 ovarian) was 12300 nM. For the same molecule, the TGI (OVCAR-5 ovarian) was 24800 nM, the GI50 (OVCAR-8 ovarian) was 135 nM and the TGI (OVCAR-8 ovarian) was 2220 nM. For the same molecule, the GI50 (PC-3 prostate) was 1810 nM, the TGI (PC-3 prostate) was 3850 nM and the GI50 (RPMI-8226 leukemia) was less than 10 nM. For the same molecule, the TGI (RPMI-8226 leukemia) was 1100 nM, the GI50 (RXF 393 renal) was less than 10 nM and the TGI (RXF 393 renal) was less than 10 nM. The GI50 (SF-268 CNS) was 1670 nM, the TGI (SF-268 CNS) was 3040 nM and the GI50 (SF-539 CNS) was 1640 nM. The TGI (SF-539 CNS) was 3010 nM, the GI50 (SK-MEL-2 melanoma) was less than 10 nM and the TGI (SK-MEL-2 melanoma) was less than 10 nM. For the same molecule, the GI50 (SK-MEL-28 melanoma) was 1370 nM, the TGI (SK-MEL-28 melanoma) was 2670 nM and the GI50 (SK-MEL-5 melanoma) was less than 10 nM. The TGI (SK-MEL-5 melanoma) was 44.6 nM, the GI50 (SN12C renal) was 2140 nM and the TGI (SN12C renal) was 3610 nM. For the same molecule, the GI50 (SNB-19 CNS) was 1560 nM, the TGI (SNB-19 CNS) was 2970 nM and the GI50 (SR leukemia) was 18.8 nM. For the same molecule, the TGI (SR leukemia) was 1050 nM, the GI50 (SW-620 colon) was 2160 nM and the TGI (SW-620 colon) was 4300 nM. It also gave a GI50 (T-47D breast) of 1730 nM, a TGI (T-47D breast) of 3170 nM and a GI50 (TK-10 renal) of 14000 nM. For the same molecule, the TGI (TK-10 renal) was 27000 nM, the GI50 (U251 glioblastoma) was 1490 nM and the TGI (U251 glioblastoma) was 2820 nM. For the same molecule, the GI50 (UACC-257 melanoma) was 1520 nM, the TGI (UACC-257 melanoma) was 2850 nM and the GI50 (UACC-62 melanoma) was 1650 nM. It also gave a TGI (UACC-62 melanoma) of 3010 nM, a GI50 (UO-31 renal) of 19500 nM and a TGI (UO-31 renal) of 33700 nM.
